{"source": "patent US5527775A", "about": "“Reduction of mammalian neoplasms with phospholipase A2 activating substances” (Enzon, Inc., priority 1994, dated 1996)", "molecules": {"B1": {"name": "PLAP: mouse phospholipase A2 activating protein, molecular mass approximately 28,000 (protein, UniProt P27612 1-794, looked up)", "Phospholipase A-2-activating …": "MASGASRYRLSCSLPGHELDVRGLVCCLYPPGAFVSVSRDRTTRLWAPDSPNRGFTEMHCMSGHSNFVSCVCIIPSSDIYPHGLIATGGNDHNICIFSLDSPMPLYILKGHKDTVCSLSSGKFGTLLSGSWDTTAKVWLNDKCMMTLQGHTAAVWAVKILPEQGLMLTGSADKTIKLWKAGRCERTFLGHEDCVRGLAILSETEFLSCANDASIRRWQITGECLEVYFGHTNYIYSISVFPNSKDFVTTAEDRSLRIWKHGECAQTIRLPAQSIWCCCVLENGDIVVGASDGIIRVFTESEERTASAEEIKAFERELSQATIDSKTGDLGDINAEQLPGREHLSEPGTREGQTRLIRDGERVEAYQWSVSDGRWIKIGDVVGSSGANQQTSGKVLYEGKEFDYVFSIDVNEGGPSYKLPYNVSDDPWLVAYNFLQKNDLNPMFLDQVAKFIIDNTKGQTLGLGNTSFSDPFTGGGRYVPGTSGPSNTVQTADPFTGAGRYMPGSAGMDTTMTGVDPFTGNSAYRSAASKTVNIYFPKKEALTFDQANPTQILGKLKELNGTAPEEKKLTEDDLVLLEKILSLICNNSSEKPTAQQLQILWKAINWPEDIVFPALDILRLSIKHPNVNENFCNEKGDQFSSHLINLLNPKGKPANQLLALRTFCNCFVSQAGQKLMMSQRESLMSHAIELKSGSNKNIHIALATLTLNYSVCFHKDHNIEGKAQCLSVISTILEVVQDLEATFRLLVALGTLISDDSNAIQLAKSLGVDSQIKKYVSVSEPAKVSECCRLVLHLL"}}, "key": {"PLA2": {"tested_on": "PLA2", "conditions": "Salari et al., Mol. Pharm. 28:546 (1985), cited from earlier work"}, "C6 glioma cells": {"tested_on": "C6 glioma cells", "assay": "rat air pouch glioma model: tumor thickness, weight and necrosis", "format": "in vivo", "protocol": "C6 glioma cells (10^7) were injected into rats and allowed to grow for two weeks. The average thickness of the tumors was approximately 7±2 mm in thickness. The animals were then treated with 500 μg of either agarose complexed PLAP peptide SEQ ID NO. 1 or agarose complexed PLAP-like peptide in which the two adjacent prolines were deleted. After three days of treatment, the animals were given a second injection of the peptide and the tumors were measured on day 6 of the treatment regimen.\nC6 glioma cells (10^7) were injected into rats and allowed to grow for two weeks as in FIG. 1. By day 14, the tumors were approximately 7 mm in thickness. The animals were then given the indicated concentrations of the agarose complexed PLAP peptide. The thickness of the tumor was monitored after three days of treatment and the values are shown as a percentage of reduction in the tumor cell mass.\nSprague-Dawley rats were injected with 10^6 C-6 glioma cells. The tumors were allowed to grow for 14 days prior to injection of 500 μg of agarose complexed PLAP peptide. Tumor thickness was measured after 3 and 6 days of treatment.\nG6 glioma cells, derived from a glioma induced in the Wistar strain of rat and obtained from the American Type Culture Collection (ATCC) were maintained in tissue culture. The cell cultures were grown to confluence in 75 cm^2 tissue culture flasks, detached from the flasks by addition of trypsin/EDTA, washed twice in fresh culture medium, and resuspended at a final concentration of 2×10^6 cells per ml.\nAir pouches were formed in female Sprague-Dawley rats (average age 6-8 weeks; average weight 180 grams). Briefly, 20 cc's of sterile air was injected into the subcutaneous tissues on the dorsum of the animal to form an air filled pouch. Inflation of the pouches was maintained by re-injection of sterile air every other day. Pouches were ready for use on day 7.\nSuspension of cultured glioma cells (1×10^6 -1×10^7 cells) were injected into the air pouches. By day 14, the tumors typically were of sufficient size to be used as described below.\nAnimals were injected with 500 μgrams of PLAP peptide bound to agarose beads. A similar number of rats were injected with unmodified agarose beads as a control. In order to ensure uniform distribution of the bound peptide, the total volumes injected were increased to 5 ml by the addition of sterile saline immediately prior to injection. Since tumor growth was characterized by formation of large effusions containing high levels of eicosanoids, the tumors were aspirated immediately prior to injection of PLAP peptide or agarose beads alone.\nSeventy-two hours after injection, the animals were euthanized by using CO2 gas. The tumor effusions were aspirated and the tumor cell numbers were determined using a Coulter counter. The samples were frozen and stored at -80° for later eicosanoid assay. The tumor masses were removed through an incision made in the dorsum of the animal and weighed. […]\nTo determine the effect of concentration of PLAP peptide on tumor cell number and tumor size, Sprague-Dawley rats were injected with 10^6 C-6 glioma cells as described above, and were then treated with either 0, 0.25, 0.5, or 1 mg/rat PLAP. Three days after treatment, the maximum thickness of the tumors was measured.\nTo determine the length of the effectiveness of administering PLAP peptide, Sprague-Dawley rats were injected with 10^6 C-6 glioma cells as described above. […] Tumor thickness was measured 3 and 6 days after treatment."}, "[1]": {"tested_on": "eicosanoids in exudates obtained from tumors", "assay": "measurement of eicosanoids in tumor exudates", "format": "in vivo, rat", "conditions": "72 hours after injection", "protocol": "Seventy-two hours after injection, the animals were euthanized by using CO2 gas. The tumor effusions were aspirated and the tumor cell numbers were determined using a Coulter counter. The samples were frozen and stored at -80° for later eicosanoid assay. The tumor masses were removed through an incision made in the dorsum of the animal and weighed. Samples of tumor tissues were stored in formalin for routine histology or snap-frozen in liquid N2 for immunocytochemistry.\nEicosanoid levels in exudates obtained from tumors were determined using enzyme-lined immunoassay kits purchased from Cayman Chemical Company (Ann Arbor, Mich.) and used as recommended by the supplier. Calculations of the amounts of eicosanoids were made using EPA software purchased from the same company."}, "phospholipase A2": {"tested_on": "phospholipase A2", "assay": "stimulation of phospholipase A2 activity in vitro", "format": "biochemical", "conditions": "in vitro (unpublished results)", "text": "As used herein phospholipase A2 activating agents, PLAA, are defined as agents which induce phospholipase A2 activity. A variety of procedures are known in the art for assaying an agent for PLAA activity. These include, but are not limited to, assaying cultured endothelial cells or smooth muscle cells for the release of arachidonic acid in the presence of the agent as well as cell free systems which utilize 1-palmitoyl-2-[14C]arachidonyl-sn-glycero-3-phospho-[methy13H]choline to assay for PLA2 activity (see Clark et al., J. Biol. Chem. 261:10713-10718 (1986) and Clark et al., Biochem. J. 250:125-132 (1988)."}, "[2]": {"tested_on": "MTVL murine mammary tumor cells", "assay": "survival of mice injected with mammary tumor cells", "format": "in vivo, Balb C mice", "conditions": "200 μg agarose bound peptide 1 and 4 days after tumor cells; vs agarose beads alone; p<0.001 (FIG. 4)", "protocol": "(§1) Balb C mice were injected with 10^6 MTVL murine mammary tumor cells. The mice were treated with 200 μg of agarose complexed PLAP peptide 1 and 4 days after injection of the tumor cells. The animals were checked daily for survival. The results obtained are the average for twenty animals in each group. Animals that received no treatment (.smallcircle.),animals that received PLAP ( ) p<0.001.\nThe effectiveness of stimulating tumor necrosis for tumors other than gliomas was tested. To test effectiveness of the present methods in treating neoplastic mammary cells, Balb C mice were injected with 10^6 MTVL murine mammary tumor cells as described above for the glioma cells. The mice were treated with 200 μg of agarose bound PLAP peptide 1 and 4 days after injection of the tumor cells. The animals were checked daily for survival. FIG. 4 provides the average of the results obtained for twenty animals in each group."}, "[3]": {"tested_on": "LL-2 murine lung tumor cells", "assay": "survival of mice injected with lung tumor cells", "format": "in vivo, C57 Bl/6 mice", "conditions": "200 μg agarose bound peptide 1 and 4 days after tumor cells; vs agarose beads alone; p<0.0001 (FIG. 5)", "protocol": "as §1, with “C57 Bl/6” for “Balb C”, “LL-2” for “MTVL”, “lung” for “mammary”, “result” for “results”, “(.smallcircle.), animals” for “(.smallcircle.),animals”, “p<0.0001.” for “p<0.001.”\nTo test the effectiveness of the present methods in treating neoplastic lung cells, C57 Bl/6 mice were injected with 10^6 LL-2 murine lung tumor cells as described above for the glioma cells. The mice were treated with 200 μg of agarose bound PLAP peptide 1 and 4 days after injection of the tumor cells. The animals were checked daily for survival. FIG. 5 provides the average of the result obtained for twenty animals in each group were used."}, "mononuclear cells": {"tested_on": "mononuclear cells", "assay": "immunocytochemical analysis of tumors (mononuclear cell infiltrate)", "format": "in vivo, rat", "conditions": "frozen sections of tumor tissues reacted with MAbs", "text": "Snap-frozen tissue samples were sectioned on a cryotome, fixed in acetone, blocked with levamisole, and then reacted with monoclonal antibodies to cell surface determinants expressed by mononuclear cells. After washing, tissue sections were reacted with biotin-labelled rat anti-mouse IgG monoclonal antibodies, alkaline phosphate-labelled avidin-biotin complex (ABC, Vecta, Burlinghame, Calif.) and color developed by the addition of appropriate substrate. Sections were then mounted in Permount (Fisher Scientific) and read in an Olympus light microscope.\nTo determine whether PLAP-induced tumor necrosis was associated with specific cellular events, frozen sections of tumor tissues were reacted with MAbs directed at subpopulations of mononuclear cells. […] Thus, PLAP-induced tumor necrosis appears to be mediated through enhanced NK/LAK cell activation."}, "neutrophil": {"tested_on": "neutrophil", "conditions": "Bomalaski et al., J. Immuno. (1989); cited from earlier work"}}, "note": "Where two headings read alike, the source gives them in different places.", "data": [{"molecule": "TNF-alpha", "values": [{"measurement": "stimulation of PLA2 activity", "setting": "PLA2", "result": "shown to stimulate PLA2 activity"}]}, {"molecule": "CC[C@H](C)[C@H](NC(=O)CN)C(=O)NCC(=O)N[C@@H](C)C(=O)N[C@H](C(=O)N[C@@H](CC(C)C)C(=O)N[C@@H](CCCCN)C(=O)N[C@H](C(=O)N[C@@H](CC(C)C)C(=O)N[C@H](C(=O)N[C@H](C(=O)NCC(=O)N[C@@H](CC(C)C)C(=O)N1CCC[C@H]1C(=O)N[C@@H](C)C(=O)N[C@@H](CC(C)C)C(=O)N[C@H](C(=O)N[C@@H](CO)C(=O)N[C@@H](Cc1c[nH]c2ccccc12)C(=O)N[C@H](C(=O)N[C@@H](CCCCN)C(=O)N[C@@H](CCCNC(=N)N)C(=O)N[C@@H](CCCCN)C(=O)N[C@@H](CCCNC(=N)N)C(=O)N[C@@H](CCC(N)=O)C(=O)N[C@@H](CCC(N)=O)C(N)=O)[C@@H](C)CC)[C@@H](C)CC)[C@@H](C)O)[C@@H](C)O)C(C)C)C(C)C", "note": "[melittin]", "values": [{"measurement": "stimulation of PLA2 activity", "setting": "PLA2", "result": "shown to stimulate PLA2 activity"}, {"measurement": "stimulation of PLA2 activity", "setting": "PLA2; listed as Melittin", "result": "has phospholipase activating activity"}]}, {"molecule": "GLU-SER-PRO-LEU-ILE-ALA-LYS-VAL-LEU-THR-THR-GLU-PRO -PRO-ILE-ILE-THR-PRO-VAL-ARG-ARG-(THR-LEU) [PLAP peptide]", "values": [{"measurement": "reduction in tumor size as a function of amount administered", "setting": "C6 glioma cells; rats, 0, 0.25, 0.5 or 1 mg/rat, maximum tumor thickness three days after treatment (FIG. 2)", "result": "concentration dependent"}, {"measurement": "duration of tumor necrosis", "setting": "C6 glioma cells; rats, 500 μg agarose bound peptide, tumor thickness 3 and 6 days after treatment (FIG. 3)", "result": "observed to continue even at 6 days"}, {"measurement": "tumor regression / size of the tumor", "setting": "C6 glioma cells; rats, 500 μg agarose complexed peptide, second injection after three days, tumors measured on day 6 (FIG. 1)", "result": "profound effect on the size of the tumor"}, {"measurement": "tumor weight compared with control animals", "setting": "C6 glioma cells; rats, 500 μg peptide bound to agarose beads, 72 hours", "result": "reduction in tumor weight"}, {"measurement": "tumor necrosis", "setting": "C6 glioma cells; rats, 500 μg peptide bound to agarose beads, tumor tissues examined after 72 hours", "result": "caused significant necrosis"}, {"measurement": "amount of LTC4 in exudates from tumors compared with those injected with agarose beads", "setting": "[1]", "result": "No changes"}, {"measurement": "amount of PGE2 in treated tumors compared with tumors injected with agarose beads", "setting": "[1]", "result": 50, "unit": "fold"}, {"measurement": "amount of PGI2 in exudates from tumors compared with those injected with agarose beads", "setting": "[1]", "result": "No changes"}, {"measurement": "amount of leukotriene B4 (LTB4) in treated tumors compared with tumors injected with agarose beads", "setting": "[1]", "result": 20, "unit": "fold"}, {"measurement": "stimulation of phospholipase A2 activity in vitro", "setting": "phospholipase A2", "result": "stimulated phospholipase A2 activity"}, {"measurement": "survival of mice injected with mammary tumor cells", "setting": "[2]", "result": "increased the survival"}, {"measurement": "survival of mice injected with lung tumor cells", "setting": "[3]", "result": "increased the survival"}, {"measurement": "OXI (cytotoxic T lymphocyte) and NRK-1 positive (NK) cells in the infiltrate", "setting": "mononuclear cells", "result": "high numbers"}, {"measurement": "mononuclear cell infiltrate in tumor tissues", "setting": "mononuclear cells", "result": "stimulated mononuclear cell infiltrate"}]}, {"molecule": "B1", "values": [{"measurement": "neutrophil aggregation", "setting": "neutrophil", "result": "stimulates neutrophil aggregation"}, {"measurement": "neutrophil chemokinesis", "setting": "neutrophil", "result": "stimulates"}]}]}
